Reference: patent US20090054412A1, “Treatment of Sleep Disorders” (priority 2007, published 2009)
Entries after “also recorded” stand apart in the source; their conditions may differ. Marks after values point to notes of the source that are not given here.

What was measured:
[1] = target: T1, rat GABAA receptors α1β2γ2 (Rattus norvegicus, UniProt P18508+P62813); experiment: Stimulation of GABA (EC3-5)-elicited currents in Xenopus oocytes, two-electrode voltage clamp, α1β2γ2; type: cell-based
T1 construct: expressed in transfected cells; host or cells: Xenopus laevis oocytes, cRNA microinjected
Excerpt: (§1) 7-Chloro-3-(5-dimethylaminomethyl-[1,2,4]oxadiazol-3-yl)-5methyl-4,5-dihydro-imidazol[1,5,-a][1,4]benzodiazepine-6-one was used to test the effects of the compound of formula (II): […]
(§2) Similar procedures were chosen as for the investigation of other GABAA receptor subunit specific substances (e.g., Baur et al., 2005; Mol. Pharmacol. 68, 787-792).
(§3) Lobes of the ovary containing the follicles were obtained by surgical procedures from female Xenopus laevis. Follicles were singled out using a platinum loop. Fifty nL of cRNA solution at a ratio of αx:β2:γ2 of 1:1:5 (3.3-10 nM αx (x=1,2,3,5); 3.3-10 nM β2; 16.7-50 nM γ2) (Boileau et al., 2002; Neuropharmacology 43, 695-700) were microinjected into Xenopus follicles. Several hours after microinjection the follicles were freed of follicular layers and adhering connective tissue by a collagenase/hypertonic shock procedure (Sigel, 1987; J. Physiol.(Land) 386, 73-90). Oocytes were kept at constant 18° C. until measurement (1-4 days) in a modified Barth solution (88 mM NaCl, 1 mM KCl, 2.4 mM NaHCO3, 10 mM Hepes-NaOH (pH 7.5), 0.82 mM MgSO4×7H2O, 0.34 mM Ca(NO3)2×4H2O, 0.41 mM CaCl2×2H2O, 100 U Penicillin/mL, 100 μg Streptomycin/mL, sterile filtered).
(§4) Currents were measured using a home-built amplifier in combination with a xy-recorder or were digitized using a MacLab/200 (AD Instruments) and stored on a computer. Xenopus oocytes were voltage clamped using the two-electrode voltage clamp technique (electrode resistance about 0.8 MΩ) at −80 mV. The medium contained 90 mM NaCl, 1 mM KCl, 1 mM MgCl2, 1 mM CaCl2, 10 mM Na-Hepes (pH 7.4) and 0.5% DMSO.
(§5) GABA was applied for 20-50 seconds without or in combination with other drugs and a washout period of 4 minutes was allowed to ensure full recovery from desensitization, which was experimentally determined. The perfusion solution (6 mL/min) was applied through a glass capillary with an inner diameter of 1.35 mm, the mouth of which was placed about 0.4 mm from the surface of the oocyte. The rate of solution change under our conditions has been estimated 70% within less than 0.5 s (Sigel et al., 1990; Neuron 5, 703-711). The entire perfusion system and the assay chamber were cleaned between drug applications by washing with DMSO.
(§6) Data is given as mean±SD, except in the figures where data is shown for clarity as mean±SEM. Current stimulation was calculated as follows: stimulation (%)=((I(GABA+modulator)−I(GABA))/I(GABA))×100%, where I is the current amplitude. Where indicated, the stimulation was standardized to the stimulation by 1 μM diazepam (100%). To obtain FIGS. 1-4, values for current stimulation obtained at a given concentration of modulator at a given subunit combination were averaged. The data points were fitted with the equation stimulation=efficacy/(1+(potency/concentration of modulator)). The values given in the Tables (Summary) are obtained by fitting individual curves and subsequently averaging efficacy and potency.
GABA (EC3-5) was applied to an oocyte expressing α1β2γ2 GABAA receptors several times until the current response was stable. The GABA (EC3-5) refers to the effective concentration of GABA, which produces a response that is 3-5% of the maximal response to high concentrations of GABA. Such a low concentration of GABA is chosen in order to better see the potentiating effect of positive allosteric modulators.
GABA was then applied in combination with various concentrations of the compound of formula (II) between 0.3 nM and 3,000 nM to produce a cumulative concentration response curve. […] In each batch of oocytes the stimulation by 1 μM diazepam was determined in five ocytes, extent of stimulation averaged and defined as 100%. Where indicated, stimulation by the compound of formula (II) in each batch of ocytes was expressed as a percentage of this value in the corresponding batch.
GABA (EC3-5) was applied to an oocyte expressing α1β2γ2 GABAA receptors several times until the current response was stable.

[2] = target: T2, rat GABAA receptors α5β2γ2 (Rattus norvegicus, UniProt P18508+P19969); experiment: Stimulation of GABA (EC3-5)-elicited currents in Xenopus oocytes, two-electrode voltage clamp, α5β2γ2; type: cell-based
T2 construct: expressed in transfected cells; host or cells: Xenopus laevis oocytes, cRNA microinjected
Excerpt: as §1, §2, §3, §4, §5, §6
Concentration response curves were also performed with oocytes expressing α2β2γ2, α3β2γ2, or α5β2γ2, after establishing the optimal concentration range as indicated above. […] Averaged data of the individual curves summarizing the effects of the compound of formula (II) are shown below for unstandardized and standardized stimulation.
Concentration response curves were also performed with oocytes expressing α2β2γ2, α3β2γ2, or α5β2γ2.
Current stimulation by diazepam was determined in each batch of oocytes as follows. GABA (EC3-5) was applied until a stable response was obtained. Subsequently, GABA was applied in combination with 1 μM diazepam.

[3] = Example 2: single and repeat dose pharmacokinetic, safety and pharmacodynamic study in healthy volunteers; type: in vivo; conditions: human
Experimental: A single and repeat dose pharmacokinetic safety and pharmacodynamic study of the effects of the compound of formula (II) was conducted using healthy volunteers. The compound of formula (II) was administered orally in 1 mg, 1.5 mg, 2 mg and 2.5 mg doses via a hard gelatine capsule containing the compound in powder form.

[4] = Example 1: placebo controlled cross-over study, road noise model, healthy volunteers; type: in vivo, human
Experimental: A placebo controlled, randomized, double-blind, cross-over study of the effects of the compound of formula (II) was conducted using a road noise model using 12 healthy volunteers. Specifically, the volunteers were subjected to road traffic noise to imitate the effects of insomnia, and the medication was orally administered 5 minutes before the 11 pm bed time in 1.0 mg, 1.5 mg, 2 mg and 2.5 mg doses in the form of a hard gelatine capsule containing the powdered compound of formula (II). Measurements were then taken at 8, 10 and 12 hours after dosing.

[5] = 1.5, 2.0 & 2.5 mg oral, vs placebo
[6] = all 4 doses (1.0, 1.5, 2 and 2.5 mg oral)
[7] = objective residual effects, 8, 10 and 12 hours after dosing

T2 sequence (P19969 32-464 limits assumed): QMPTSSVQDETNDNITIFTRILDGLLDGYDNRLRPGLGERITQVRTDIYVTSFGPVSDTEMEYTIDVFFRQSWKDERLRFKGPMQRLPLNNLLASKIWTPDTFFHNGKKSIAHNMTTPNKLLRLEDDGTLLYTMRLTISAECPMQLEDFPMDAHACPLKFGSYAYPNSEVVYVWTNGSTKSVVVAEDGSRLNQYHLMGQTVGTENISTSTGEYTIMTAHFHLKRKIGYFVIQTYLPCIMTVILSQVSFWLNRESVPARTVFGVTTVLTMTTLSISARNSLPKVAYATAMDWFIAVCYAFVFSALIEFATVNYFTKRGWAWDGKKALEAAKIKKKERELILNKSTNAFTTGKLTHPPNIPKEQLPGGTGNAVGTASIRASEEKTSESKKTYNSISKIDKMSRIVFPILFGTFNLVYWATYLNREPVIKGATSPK
T2 sequence (P63138 25-474 partner limits assumed): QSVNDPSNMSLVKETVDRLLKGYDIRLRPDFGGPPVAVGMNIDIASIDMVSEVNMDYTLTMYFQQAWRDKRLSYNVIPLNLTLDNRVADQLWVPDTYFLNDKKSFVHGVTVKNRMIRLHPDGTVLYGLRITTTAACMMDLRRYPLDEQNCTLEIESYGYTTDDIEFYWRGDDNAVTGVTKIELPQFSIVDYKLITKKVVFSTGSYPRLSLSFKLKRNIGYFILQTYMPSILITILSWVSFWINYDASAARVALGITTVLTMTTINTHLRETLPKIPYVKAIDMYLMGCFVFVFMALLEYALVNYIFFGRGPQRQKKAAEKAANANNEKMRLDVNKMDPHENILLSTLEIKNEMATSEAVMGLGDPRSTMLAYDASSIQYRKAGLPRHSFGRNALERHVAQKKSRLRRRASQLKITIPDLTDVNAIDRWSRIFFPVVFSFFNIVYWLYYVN
T2 sequence (P18508 39-466): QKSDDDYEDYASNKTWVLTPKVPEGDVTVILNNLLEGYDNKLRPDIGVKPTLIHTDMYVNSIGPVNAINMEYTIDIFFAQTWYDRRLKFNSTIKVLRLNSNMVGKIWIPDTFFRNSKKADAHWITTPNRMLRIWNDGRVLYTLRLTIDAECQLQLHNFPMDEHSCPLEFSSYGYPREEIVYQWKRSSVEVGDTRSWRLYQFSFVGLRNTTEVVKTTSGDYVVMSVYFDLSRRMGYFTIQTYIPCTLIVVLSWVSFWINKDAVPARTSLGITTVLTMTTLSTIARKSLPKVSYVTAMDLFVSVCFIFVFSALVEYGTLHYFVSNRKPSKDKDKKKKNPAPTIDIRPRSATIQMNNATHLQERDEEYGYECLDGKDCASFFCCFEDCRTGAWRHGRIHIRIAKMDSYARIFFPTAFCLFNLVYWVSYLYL
T1 sequence (P62813 28-455): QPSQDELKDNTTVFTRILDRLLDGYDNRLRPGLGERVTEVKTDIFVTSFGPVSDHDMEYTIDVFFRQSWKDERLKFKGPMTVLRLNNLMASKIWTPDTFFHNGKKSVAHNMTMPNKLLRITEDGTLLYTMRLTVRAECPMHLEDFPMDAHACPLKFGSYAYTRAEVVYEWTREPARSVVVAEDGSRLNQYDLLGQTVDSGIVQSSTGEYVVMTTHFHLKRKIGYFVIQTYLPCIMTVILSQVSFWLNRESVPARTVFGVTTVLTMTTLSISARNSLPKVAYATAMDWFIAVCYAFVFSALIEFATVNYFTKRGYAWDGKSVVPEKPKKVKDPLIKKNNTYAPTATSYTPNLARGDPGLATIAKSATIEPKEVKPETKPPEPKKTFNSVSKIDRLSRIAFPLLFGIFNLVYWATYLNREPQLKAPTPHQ
T1 sequence (P63138 25-474 partner limits assumed): as the sequence (P63138 25-474 partner limits assumed) above
T1 sequence (P18508 39-466): as the sequence (P18508 39-466) above

CN(C)Cc1nc(-c2ncn3c2CN(C)C(=O)c2c(Cl)cccc2-3)no1 [compound of formula (II), 7-chloro-3-(5-dimethylaminomethyl-[1,2,4]oxadiazol-3-yl)-5-methyl-4,5-dihydro-imidazo[1,5-a][1,4]benzodiazepine-6-one]
Intrinsic activity / type of allosteric modulation ([1]; GABAA receptor benzodiazepine site, relative to diazepam): partial positive allosteric modulator; also recorded: partial agonist | Receptor subtype preference ([1]; at concentrations <100 nM, in comparison to α5β2γ2, α3β2γ2 and α2β2γ2): preference for α1β2γ2 GABAA receptors | EC50 ([1]; α1β2γ2, GABA EC3-5, mean±SD of individually fitted curves, read-out: Potency): 18 ± 6 nM | Standardized Efficacy ([1]; α1β2γ2, standardized to stimulation by 1 μM diazepam (100%)): 62 ± 10% (n = 4) | Efficacy ([1]; α1β2γ2, unstandardized current stimulation): 123 ± 19% (n = 4) | EC50 ([2]; GABA EC3-5, mean±SD of individually fitted curves, read-out: Potency): 53 ± 6 nM | Standardized Efficacy ([2]; standardized to stimulation by 1 μM diazepam (100%)): 69 ± 23% (n = 5) | Efficacy ([2]; unstandardized current stimulation): 135 ± 16% (n = 5) | half-life ([3]; in vivo, po): 3 to 4 h | effect of food on the extent of absorption ([3]; oral): little or no effect | pharmacokinetic profile on day 14 after repeat dosing compared to day 1 ([3]; oral repeat dosing): no significant differences | Subjective assessment (LARS): Coordination ([4]; 2.5 mg): No impairment | Subjective assessment (LARS): Mood ([4]; 2.5 mg): No impairment | Subjective assessment (LARS): Sedation ([4]; 2.5 mg): No impairment | WASO 2nd half night (hrs 5-8) [4, 5]: Significantly reduced | WASO full night (hrs 0-8) [4, 5]: Significantly reduced | Sleep Efficiency Index ([4]; 2.0 & 2.5 mg oral, vs placebo): Significantly improved | Total Sleep Time ([4]; 2.0 & 2.5 mg oral, vs placebo): Significantly improved | Performance on cognitive or psychomotor tests ([4]; 8 to 12 hours after dose, data corrected for multiple comparisons): no impairment of performance | Leeds Sleep Evaluation Questionnaire: Quality of sleep ([4]; all 4 doses): Significantly improved at all | Slow Wave Sleep (% and duration) [4, 6]: Significantly increased | Stage IV Sleep (% and duration) [4, 6]: Significantly increased | Sternberg Memory Task (STM) ([4]; at 8 or 12 h): No effect | Continuous Tracking Task - reaction time ([4]; at 10 or 12 h): No effect | Continuous Tracking Task - deviation ([4]; at 8 h): No effect | Leeds Sleep Evaluation Questionnaire: Early morning behaviour (clumsiness & tiredness) ([4]; human, in vivo): No effect | Leeds Sleep Evaluation Questionnaire: Ease of awakening ([4]; human, in vivo): No effect | Choice Reaction Time - Motor Component ([4]; objective residual effects): No effect | Critical Flicker Fusion Test ([4]; objective residual effects): No effect | Word Recall - delayed (WRd) ([4]; objective residual effects): No effect | Rapid Visual Information Processing [4, 7]: No effect | Sustained Attention to Response (SART) [4, 7]: No effect | Leeds Sleep Evaluation Questionnaire: Getting to sleep ([4]; road traffic noise model considered nondiscriminant for sleep onset measures): (No effect)*
